In patent publication US6583175B2, “Alkylxanthates and use of alkylxanthates in the integrated pest management” (Council of Scientific & Industrial Research, priority 2001, dated 2003):
≈ marks a conversion by molar mass, not a printed value. Like-named read-outs stand apart in the source and are kept apart here.

Tests used:
lice = settings: in vivo; cited from earlier work
Aedes aegypti mosquito = settings: various aquatic stages of Aedes aegypti; cited from earlier work
Spodoptera litura [1] = experiment: Antifeedant activity against late third instar of Spodoptera litura (leaf disk, oral feeding); format: in vivo; settings: for Concentration required for 50% leaf protection EC50 ± S.E.: late third instar
in vivo = settings: Artemia salina (brine shrimp), other: exposure in artificial seawater in the sample vial
Spodoptera litura [2] = format: in vivo; settings: topical
Aedes aegypti = format: in vivo; settings: IV instar larvae, 24 hours
[3] = test system: Brine shrimp, Artemia salina; settings: in vivo

S=C(OCc1ccccc1)SCCSC(=S)OCc1ccccc1 [Compound 5, Ethylene Bis(benzylxanthate)]
insecticidal activity against lice (lice): moderate insecticidal activity

CC(C)COC(=S)SCCSC(=S)OCC(C)C [Ethylene bis (isobutylxanthate), Ethylene Bis (isobutylxanthate)]
larvicidal and insect growth regulatory activity (Aedes aegypti mosquito): larvicidal and insect growth regulatory activity in dose dependent mannar
A.I. (Anti-feedent Index) (Spodoptera litura [1]; 20 μg/sq. cm.): 8.14
Percent leaf consumption 12 hr (Spodoptera litura [1]; 20 μg/sq. cm.): 60.2%
Percent leaf consumption 24 hr (Spodoptera litura [1]; 20 μg/sq. cm.): 80.7%
A.I. (Anti-feedent Index) (Spodoptera litura [1]; 35 μg/sq. cm.): 20.48
Percent leaf consumption 12 hr (Spodoptera litura [1]; 35 μg/sq. cm.): 36.1%
Percent leaf consumption 24 hr (Spodoptera litura [1]; 35 μg/sq. cm.): 62.7%
A.I. (Anti-feedent Index) (Spodoptera litura [1]; 50 μg/sq. cm.): 34.85
Percent leaf consumption 12 hr (Spodoptera litura [1]; 50 μg/sq. cm.): 22.4%
Percent leaf consumption 24 hr (Spodoptera litura [1]; 50 μg/sq. cm.): 45.9%
A.I. (Anti-feedent Index) (Spodoptera litura [1]; 65 μg/sq. cm.): 58.07
Percent leaf consumption 12 hr (Spodoptera litura [1]; 65 μg/sq. cm.): 9.3%
Percent leaf consumption 24 hr (Spodoptera litura [1]; 65 μg/sq. cm.): 25.2%
Concentration required for 50% leaf protection EC50 ± S.E. (Spodoptera litura [1]): 42.46 ± 5.76 μg/cm^2
LC50 at 24 h (in vivo): 25.8 ± 2.9 µg/mL (≈ 78.9 µM)

S=C(OCC1CCCO1)SCSC(=S)OCC1CCCO1 (stereo not drawn) [methylene Bis (tetrahydrofurfuryl xanthate)]
Adult emergence: Abnormal adults (Spodoptera litura [2]; 5 μg/Insect): 22
Adult emergence: Intermediates (Spodoptera litura [2]; 5 μg/Insect): 0
Adult emergence: Non-emergence (Spodoptera litura [2]; 5 μg/Insect): 3
Adult emergence: Normal adults (Spodoptera litura [2]; 5 μg/Insect): 37
Larval mortality (%) (Spodoptera litura [2]; 5 μg/Insect): 36%
Pupal Formation: Abnormal pupa (Spodoptera litura [2]; 5 μg/Insect): 6
Pupal Formation: Normal pupa (Spodoptera litura [2]; 5 μg/Insect): 58
Pupal Formation: Pupal Mortality (Spodoptera litura [2]; 5 μg/Insect): 5
Adult emergence: Abnormal adults (Spodoptera litura [2]; 10 μg/Insect): 19
Adult emergence: Intermediates (Spodoptera litura [2]; 10 μg/Insect): 1
Adult emergence: Non-emergence (Spodoptera litura [2]; 10 μg/Insect): 2
Adult emergence: Normal adults (Spodoptera litura [2]; 10 μg/Insect): 28
Larval mortality (%) (Spodoptera litura [2]; 10 μg/Insect): 46%
Pupal Formation: Abnormal pupa (Spodoptera litura [2]; 10 μg/Insect): 10
Pupal Formation: Normal pupa (Spodoptera litura [2]; 10 μg/Insect): 44
Pupal Formation: Pupal Mortality (Spodoptera litura [2]; 10 μg/Insect): 6
Adult emergence: Abnormal adults (Spodoptera litura [2]; 20 μg/Insect): 17
Adult emergence: Intermediates (Spodoptera litura [2]; 20 μg/Insect): 21
Adult emergence: Non-emergence (Spodoptera litura [2]; 20 μg/Insect): 2
Adult emergence: Normal adults (Spodoptera litura [2]; 20 μg/Insect): 15
Larval mortality (%) (Spodoptera litura [2]; 20 μg/Insect): 59%
Pupal Formation: Abnormal pupa (Spodoptera litura [2]; 20 μg/Insect): 16
Pupal Formation: Normal pupa (Spodoptera litura [2]; 20 μg/Insect): 25
Pupal Formation: Pupal Mortality (Spodoptera litura [2]; 20 μg/Insect): 7
Adult emergence: Abnormal adults (Spodoptera litura [2]; 35 μg/Insect): 11
Adult emergence: Intermediates (Spodoptera litura [2]; 35 μg/Insect): 2
Adult emergence: Non-emergence (Spodoptera litura [2]; 35 μg/Insect): 3
Adult emergence: Normal adults (Spodoptera litura [2]; 35 μg/Insect): 9
Larval mortality (%) (Spodoptera litura [2]; 35 μg/Insect): 71%
Pupal Formation: Abnormal pupa (Spodoptera litura [2]; 35 μg/Insect): 10
Pupal Formation: Normal pupa (Spodoptera litura [2]; 35 μg/Insect): 19
Pupal Formation: Pupal Mortality (Spodoptera litura [2]; 35 μg/Insect): 7
Adult emergence: Abnormal adults (Spodoptera litura [2]; 50 μg/Insect): 9
Adult emergence: Intermediates (Spodoptera litura [2]; 50 μg/Insect): 3
Adult emergence: Non-emergence (Spodoptera litura [2]; 50 μg/Insect): 1
Adult emergence: Normal adults (Spodoptera litura [2]; 50 μg/Insect): 4
Larval mortality (%) (Spodoptera litura [2]; 50 μg/Insect): 80%
Pupal Formation: Abnormal pupa (Spodoptera litura [2]; 50 μg/Insect): 13
Pupal Formation: Normal pupa (Spodoptera litura [2]; 50 μg/Insect): 7
Pupal Formation: Pupal Mortality (Spodoptera litura [2]; 50 μg/Insect): 4
Adult emergence: Abnormal adults (Spodoptera litura [2]; 75 μg/Insect): 2
Adult emergence: Intermediates (Spodoptera litura [2]; 75 μg/Insect): 0
Adult emergence: Non-emergence (Spodoptera litura [2]; 75 μg/Insect): 2
Adult emergence: Normal adults (Spodoptera litura [2]; 75 μg/Insect): 2
Larval mortality (%) (Spodoptera litura [2]; 75 μg/Insect): 91%
Pupal Formation: Abnormal pupa (Spodoptera litura [2]; 75 μg/Insect): 7
Pupal Formation: Normal pupa (Spodoptera litura [2]; 75 μg/Insect): 2
Pupal Formation: Pupal Mortality (Spodoptera litura [2]; 75 μg/Insect): 5
Adult emergence: Abnormal adults (Spodoptera litura [2]; 100 μg/Insect): 1
Adult emergence: Intermediates (Spodoptera litura [2]; 100 μg/Insect): 0
Adult emergence: Non-emergence (Spodoptera litura [2]; 100 μg/Insect): 0
Adult emergence: Normal adults (Spodoptera litura [2]; 100 μg/Insect): 0
Larval mortality (%) (Spodoptera litura [2]; 100 μg/Insect): 98%
Pupal Formation: Abnormal pupa (Spodoptera litura [2]; 100 μg/Insect): 2
Pupal Formation: Normal pupa (Spodoptera litura [2]; 100 μg/Insect): 0
Pupal Formation: Pupal Mortality (Spodoptera litura [2]; 100 μg/Insect): 1
A.I. (Anti-feedent Index) (Spodoptera litura [1]; 12.5 μg/sq. cm.): 8.20
Percent leaf consumption 12 hr (Spodoptera litura [1]; 12.5 μg/sq. cm.): 48.6%
Percent leaf consumption 24 hr (Spodoptera litura [1]; 12.5 μg/sq. cm.): 80.6%
A.I. (Anti-feedent Index) (Spodoptera litura [1]; 25 μg/sq. cm.): 22.42
Percent leaf consumption 12 hr (Spodoptera litura [1]; 25 μg/sq. cm.): 31.5%
Percent leaf consumption 24 hr (Spodoptera litura [1]; 25 μg/sq. cm.): 60.2%
A.I. (Anti-feedent Index) (Spodoptera litura [1]; 35 μg/sq. cm.): 33.52
Percent leaf consumption 12 hr (Spodoptera litura [1]; 35 μg/sq. cm.): 25.9%
Percent leaf consumption 24 hr (Spodoptera litura [1]; 35 μg/sq. cm.): 47.3%
A.I. (Anti-feedent Index) (Spodoptera litura [1]; 50 μg/sq. cm.): 35.23
Percent leaf consumption 12 hr (Spodoptera litura [1]; 50 μg/sq. cm.): 22.1%
Percent leaf consumption 24 hr (Spodoptera litura [1]; 50 μg/sq. cm.): 45.5%
Concentration required for 50% leaf protection EC50 ± S.E. (Spodoptera litura [1]): 37.21 ± 9.67 μg/cm^2
LC50 ± S.E. (Aedes aegypti): 3.77 ± 0.59 µg/mL (≈ 10.2 µM)
LC50 ± S.E. [3]: 5.63 ± 0.62 µg/mL (≈ 15.3 µM)
